This passage reports GI50 and TGI results from PubChem BioAssay (NCI).

Test systems include HCT-116 colon; TK-10 renal; A549 NSCLC; U251 CNS; OVCAR-5 ovarian; M14 melanoma; SNB-75 CNS; OVCAR-4 ovarian; HCC-2998 colon; HOP-62 NSCLC.
What all share (test): DTP human tumour cell line panel, 48 h

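1) Cells in 96-well plates. 2) Compound, 48 h, 5 concentrations. 3) Linear interpolation between surrounding doses. 4) Unreached endpoint = highest concentration. GI50 marks 50% less growth. TGI marks complete inhibition of growth.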 A value given as a limit tells only on which side of the number the result lay.

As a reminder, the GI50 is the concentration giving 50% growth inhibition. By TGI is commonly meant the concentration at which net growth stops. Consider `CCCCCCCCCCCCNC(=O)[C@H]1CSC(c2cc3ccccc3s2)N1` (some centres undefined), for which the GI50 in the assay with HCT-116 colon was 1.06 µM; with TK-10 renal, 1.27 µM; in the assay on A549 NSCLC, 6.01 µM; in the assay with U251 CNS it was 2.61 µM; in the assay on OVCAR-5 ovarian, 4.16 µM; in the assay on M14 melanoma it was 0.591 µM. Also, the GI50 in the assay on SNB-75 CNS is 0.599 µM; in the assay with OVCAR-4 ovarian it was 0.849 µM; in the assay on HCC-2998 colon, 4.88 µM; in the assay on HOP-62 NSCLC, 0.732 µM. Further, the TGI in the assay on HCT-116 colon came to 3.42 µM; with TK-10 renal it was 4.88 µM; in the assay on A549 NSCLC it was 11.3 µM; with U251 CNS, 7.19 µM; in the assay on OVCAR-5 ovarian, 8.53 µM; in the assay with M14 melanoma, 1.11 µM. The TGI was found to be 1.12 µM with SNB-75 CNS, 1.97 µM with OVCAR-4 ovarian, 9.72 µM in the assay with HCC-2998 colon and 1.55 µM in the assay with HOP-62 NSCLC.

With `COC(=O)[C@H]1[C@@H](O)[C@@]2(O)c3c(OC)cc(O[C@@H]4O[C@@H]([C@H](O)CO)CO[C@H]4OC)cc3O[C@@]2(c2ccc(OC)cc2)[C@@H]1c1ccccc1`, the GI50 in the assay with HCT-116 colon is 0.00371 µM; in the assay on TK-10 renal, 0.0295 µM; in the assay on A549 NSCLC, 0.00463 µM; in the assay on U251 CNS, 0.00352 µM; in the assay with OVCAR-5 ovarian, 0.00383 µM; in the assay on M14 melanoma it was 0.00818 µM. Further, the GI50 in the assay with SNB-75 CNS was 0.004 µM; with OVCAR-4 ovarian, 0.00506 µM; in the assay on HCC-2998 colon it was 0.00297 µM; in the assay on HOP-62 NSCLC, 0.00319 µM. Also, the TGI came to 0.108 µM in the assay with TK-10 renal; 0.0457 µM with A549 NSCLC; 0.0202 µM in the assay on U251 CNS; 0.0311 µM with OVCAR-5 ovarian; 0.0271 µM in the assay on M14 melanoma; 0.0321 µM in the assay on SNB-75 CNS. For the same molecule, the TGI with OVCAR-4 ovarian stood at 0.0484 µM; in the assay on HCC-2998 colon, 0.0164 µM; in the assay with HOP-62 NSCLC, 0.0181 µM.

As to `CCSC(SCC)c1cc2c(cc1Br)OCO2`, the TGI is 82.6 µM in the assay on HCT-116 colon; over 100 µM with TK-10 renal; over 100 µM with A549 NSCLC; 32.9 µM in the assay with U251 CNS; over 100 µM in the assay with OVCAR-5 ovarian; 56.2 µM in the assay with M14 melanoma. Moreover, the TGI is 62.9 µM with SNB-75 CNS, over 100 µM with OVCAR-4 ovarian, 67.5 µM in the assay with HCC-2998 colon and over 100 µM in the assay with HOP-62 NSCLC.

With `CC1CN(c2ccc(Cl)cc2)CC(C)(C)OC(=O)O1` (centres undefined), the TGI in the assay on HCT-116 colon, with TK-10 renal, in the assay on A549 NSCLC, with U251 CNS, with OVCAR-5 ovarian and in the assay on M14 melanoma was over 100 µM in each case. For the same molecule, the TGI in the assay on SNB-75 CNS, in the assay on OVCAR-4 ovarian, in the assay on HCC-2998 colon and in the assay with HOP-62 NSCLC was over 100 µM in each case.

For the molecule `O=C1Nc2cc(Cl)ccc2N=CC1NC(=O)C(c1ccccc1)c1ccccc1Cl` (centres undefined), the TGI in the assay with HCT-116 colon, with TK-10 renal, in the assay on A549 NSCLC, in the assay with U251 CNS, in the assay on OVCAR-5 ovarian and with M14 melanoma was over 100 µM throughout. Moreover, the TGI with SNB-75 CNS, in the assay with OVCAR-4 ovarian, in the assay with HCC-2998 colon and in the assay with HOP-62 NSCLC was over 100 µM throughout.

Regarding `Cc1nc2ccccn2c1NC(=O)NNC(=S)Nc1ccc(Br)cc1`, the GI50 in the assay with HCT-116 colon is 22.9 µM; in the assay with TK-10 renal, 74.1 µM; in the assay on A549 NSCLC, 71.6 µM; with U251 CNS, 32.1 µM; in the assay with OVCAR-5 ovarian, 32.2 µM; with M14 melanoma, 24.5 µM. Besides, the GI50 was 26.1 µM in the assay on SNB-75 CNS, 66.2 µM with OVCAR-4 ovarian, 27.4 µM in the assay with HCC-2998 colon and 35.2 µM in the assay on HOP-62 NSCLC. In addition, the TGI with HCT-116 colon was 62.9 µM; in the assay on TK-10 renal, over 100 µM; in the assay on A549 NSCLC it was over 100 µM; with U251 CNS, over 100 µM; in the assay with OVCAR-5 ovarian, over 100 µM; in the assay on M14 melanoma it was 67.9 µM. Also, the TGI in the assay with SNB-75 CNS was 67.5 µM; in the assay on OVCAR-4 ovarian it was over 100 µM; in the assay on HCC-2998 colon it was 73.1 µM; in the assay with HOP-62 NSCLC, over 100 µM.

On to `COc1ccccc1-c1cc(/C=C2\C(=O)Nc3ncc(Br)cc32)cc(Br)c1O`, for which the GI50 is 10.2 µM in the assay on HCT-116 colon; 9.95 µM in the assay with TK-10 renal; 11.8 µM in the assay on A549 NSCLC; 12.7 µM in the assay on U251 CNS; over 25 µM in the assay with OVCAR-5 ovarian; 12.9 µM in the assay with M14 melanoma. The GI50 in the assay with SNB-75 CNS was 6.03 µM; in the assay on OVCAR-4 ovarian, 8.96 µM; with HCC-2998 colon it was over 25 µM; in the assay on HOP-62 NSCLC, 22.7 µM. Besides, the TGI with HCT-116 colon, with TK-10 renal, with A549 NSCLC, in the assay on U251 CNS, with OVCAR-5 ovarian and with M14 melanoma was over 25 µM each time. Besides, the TGI in the assay with SNB-75 CNS, in the assay with OVCAR-4 ovarian, in the assay on HCC-2998 colon and in the assay with HOP-62 NSCLC was over 25 µM each time.

Regarding `CC1=C(C(=O)Nc2ccccc2C)C(c2ccc(C3C(C(=O)Nc4ccccc4C)=C(C)NC(C)=C3C(=O)Nc3ccccc3C)cc2)C(C(=O)Nc2ccccc2C)=C(C)N1`, the TGI in the assay on HCT-116 colon was determined as 7.17 µM; in the assay with TK-10 renal it was 24.2 µM; with A549 NSCLC, 27.8 µM; with U251 CNS, 7.34 µM; with OVCAR-5 ovarian, 31.8 µM; with M14 melanoma it was 8.23 µM. Also, the TGI was determined as 30.9 µM in the assay with SNB-75 CNS, 22.1 µM in the assay with OVCAR-4 ovarian, 9.31 µM with HCC-2998 colon and 42.1 µM in the assay on HOP-62 NSCLC.

On to `COc1cccc(Cn2c(-c3nonc3N)nc3ccccc32)c1`, for which the GI50 in the assay on HCT-116 colon is 0.461 µM; in the assay on TK-10 renal it was 0.728 µM; in the assay with A549 NSCLC it was 0.625 µM; with U251 CNS, 0.436 µM; with OVCAR-5 ovarian, 1.17 µM; in the assay on M14 melanoma, 0.532 µM. Besides, the GI50 was 0.225 µM in the assay on SNB-75 CNS, 2.26 µM in the assay on OVCAR-4 ovarian, 1.47 µM in the assay with HCC-2998 colon and 0.511 µM in the assay with HOP-62 NSCLC. Further, the TGI in the assay with HCT-116 colon was over 100 µM; with TK-10 renal, 52.4 µM; with A549 NSCLC, over 100 µM; with U251 CNS, over 92.2 µM; in the assay on OVCAR-5 ovarian it was over 68 µM; in the assay on M14 melanoma it was over 100 µM. Further, the TGI is 2.02 µM in the assay with SNB-75 CNS, over 65.9 µM with OVCAR-4 ovarian, over 100 µM in the assay on HCC-2998 colon and 48.3 µM in the assay with HOP-62 NSCLC.
